How the values were obtained:
plasmid pBR322 DNA = assay: Electrophoresis mobility shift assay; type: binding; conditions: metal/DNAbp ratios 0.25-2.0, 37° C., 20 h
Procedure: Agarose gel electrophoresis assays were performed whereby decreased electrophoretic mobility of both forms were taken as evidence of metal-DNA binding.
Mobility Shift Assay: 10 μL aliquots of pBR322 plasmid DNA (20 μg/mL) in buffer (5 mM Tris/HCl, 50 mM NaClO4, pH=7.39) were incubated with different concentrations of the compounds (2, 3, 4, 5), and titanocene dichloride) (in the range 0.25 and 4.0 metal complex:DNA bp) at 37° C. for 20 h in the dark. Samples of free DNA and cisplatin-DNA were prepared as controls. After the incubation period, the samples were loaded onto the 1% agarose gel. The samples were separated by electrophoresis for 1.5 h at 80 V in Tris-acetate/EDTA buffer (TAE). Afterwards, the gel was stained for 30 min with a solution of GelRed nucleic acid stain.

p90-RSK = assay: Protein kinase expression in Caki-1 whole cell lysates, p90-RSK; type: cell-based, human; conditions: Caki-1, 5 μM, by 12 hours post-treatment
Procedure: (§1) Whole cell lysates of Caki-1 cells treated with compounds 2 or 6 were also evaluated for their effects on the expression levels of selected protein kinases, namely p90-RSK, AKT and MAPKAPK3. […] Because all three enzymes have been implicated in promoting cell migration and therefore are strong targets for anti-metastasis drugs, these findings predict that compound 2 would be effective in controlling metastatic potential of renal tumors.
(§2) Cell lysis and immunoblotting: Caki-1 cells were seeded into 10-cm dishes at a density of 2.2×10^6 and incubated for 24 hours. […]
(§3) The protein concentration was determined with BCA protein dye reagent (Pierce, Fisher Scientific Pittsburgh, Pa.). Samples were denatured with 5×SDS sample buffer (0.25% bromophenol blue, 0.5 M dithiothreitol (DTT), 50% glycerol 50% (v/v), 10% sodium dodecyl sulfate (SDS) followed by heating at 95° C. for 5 minutes. Proteins were separated by SDS-PAGE, transferred to a PVDF membrane (Millipore Corp.), and probed with MAPKAPK-3 antibody (Cell Signaling Technology, Danvers, Mass., USA), as well as β-actin antibody (Cell Signaling Technology, Danvers, Mass., USA). Immunoreactive bands of primary antibodies were detected using HRP goat anti-rabbit and secondary antibodies were detected with peroxidase-conjugated secondary antibody and detected by chemiluminescence (Pierce Biotechnology, Rockford, Ill.).

AKT = assay: Protein kinase expression in Caki-1 whole cell lysates, AKT; type: cell-based, human; conditions: Caki-1, 5 μM, by 12 hours post-treatment
Procedure: as §1, §2, §3

[1] = end of the study
Procedure: At the end of the study, liver, kidney and tumor of the animals were harvested, weighed and transferred into glass vials. One ml of water was added to each samples and subjected to ultrasonic tissue disruption at 15 W power for 1 minute. The tissue homogenates were frozen at −80° C. for two hours and lyophilized. The lyophilized product was heated at 90° C. with the concentrated acid mix (described above) for five hours, cooled, diluted with water and analyzed for titanium and gold by ICP-MS.

In the case of “[(η-C5H5)2TiMe(μ-mba)Au(PPh3)] [Compound 2]”, the “effect on electrophoretic mobility of plasmid DNA forms” value (plasmid pBR322 DNA) is reported as “did not affect the mobility”, the “expression of p90-RSK” value (p90-RSK) is reported as “dramatic decreases in expression” and the “expression of AKT” value (AKT) is reported as “dramatic decreases in expression”. For the same substance, the “accumulation in liver and kidney” value [1] was “accumulated in the liver and kidney to a more significant degree”.

From patent publication US9315531B2, “Titanocene-gold derivatives comprising thiolato ligands” (Research Foundation of the City University of New York, priority 2014, dated 2016)
